From publication PMC7719162, “Positioning of an unprecedented spiro[5.5]undeca ring system into kinase inhibitor space” (Scientific Reports, 2020)
Like-named read-outs stand apart in the source and are kept apart here.

Assays:
PKCa = biological target: T1, PKCa (Homo sapiens, UniProt P17252); details: cited from earlier work
T1 construct: purchased Reaction Biology Corp

CDK2/cyclin O = biological target: T2, CDK2/cyclin O (Homo sapiens, UniProt P24941); details: cited from earlier work
T2 construct: purchased Reaction Biology Corp

IL-6 = test: Secreted IL-6 ELISA in LPS-induced BV-2 cells; type: cell-based, murine
Protocol: To evaluate the secreted level of Prostaglandin E2 (PGE2), Tumor necrosis factor (TNF-α), Interleukin (IL-6), Interleukin (IL-1β), BV2 cells were seeded in a 6 well plate at the density of 1.5 × 10^6 cells/well in DMEM and incubated for 24 h. Seeded cells sere pretreated and, activated with LPS for next 24 h. conditioned medium from treated cells were collected and stored at -80 degree for longer period of time. The amount of TNF-α, IL-1β, PGE2,and IL-6 were evaluated using the competitive enzyme immunoassay kit. PGE2 kit were obtained from (Cayman Chemical, Ann Arbor, MI, USA) and TNF-α, IL-1β, and IL-6 were measured using ELISA development kits (R&D Systems, Minneapolis, MN, USA). All the protocol was exactly followed as written in the manual.

DNA-PK = biological target: T3, DNA-PK (Homo sapiens, UniProt P78527); test: Kinase panel assay (radiolabelled); type: biochemical; details: 30 μM compound, ATP 10 μM, duplicates Data 1/Data 2
T3 construct: purchased Reaction Biology Corp

AMPK(A2/B2/G2) = biological target: T4, AMPK(A2/B2/G2) (Homo sapiens, UniProt O43741+P54646+Q9UGJ0); test: Kinase panel assay (radiolabelled); type: biochemical; details: 30 μM compound, ATP 10 μM; duplicates Data 1/Data 2; read-out: % Enzyme Activity (relative to DMSO controls)
T4 construct: purchased Reaction Biology Corp
T4 sequence (P54646 whole entry): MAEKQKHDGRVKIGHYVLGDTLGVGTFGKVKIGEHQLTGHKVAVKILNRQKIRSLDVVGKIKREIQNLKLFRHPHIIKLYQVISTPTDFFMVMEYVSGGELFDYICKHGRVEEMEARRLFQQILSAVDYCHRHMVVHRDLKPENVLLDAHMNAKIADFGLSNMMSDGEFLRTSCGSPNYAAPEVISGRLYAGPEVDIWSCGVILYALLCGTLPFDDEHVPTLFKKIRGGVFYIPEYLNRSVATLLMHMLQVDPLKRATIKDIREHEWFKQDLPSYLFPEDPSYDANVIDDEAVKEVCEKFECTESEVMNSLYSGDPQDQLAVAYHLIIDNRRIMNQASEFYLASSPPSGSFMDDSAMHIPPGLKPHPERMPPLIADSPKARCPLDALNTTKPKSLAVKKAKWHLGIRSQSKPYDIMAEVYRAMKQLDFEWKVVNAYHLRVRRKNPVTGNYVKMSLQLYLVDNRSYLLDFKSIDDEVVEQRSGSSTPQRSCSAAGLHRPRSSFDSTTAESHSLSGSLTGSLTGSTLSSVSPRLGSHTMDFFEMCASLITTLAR
T4 sequence (O43741 whole entry partner): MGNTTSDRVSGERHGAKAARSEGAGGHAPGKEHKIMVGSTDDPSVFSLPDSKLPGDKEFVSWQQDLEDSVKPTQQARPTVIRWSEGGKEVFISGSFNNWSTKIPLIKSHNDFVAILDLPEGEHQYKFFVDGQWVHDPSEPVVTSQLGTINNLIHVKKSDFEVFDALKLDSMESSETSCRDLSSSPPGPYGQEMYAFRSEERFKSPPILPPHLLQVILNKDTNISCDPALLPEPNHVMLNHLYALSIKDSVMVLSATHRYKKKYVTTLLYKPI
T4 sequence (Q9UGJ0 whole entry partner): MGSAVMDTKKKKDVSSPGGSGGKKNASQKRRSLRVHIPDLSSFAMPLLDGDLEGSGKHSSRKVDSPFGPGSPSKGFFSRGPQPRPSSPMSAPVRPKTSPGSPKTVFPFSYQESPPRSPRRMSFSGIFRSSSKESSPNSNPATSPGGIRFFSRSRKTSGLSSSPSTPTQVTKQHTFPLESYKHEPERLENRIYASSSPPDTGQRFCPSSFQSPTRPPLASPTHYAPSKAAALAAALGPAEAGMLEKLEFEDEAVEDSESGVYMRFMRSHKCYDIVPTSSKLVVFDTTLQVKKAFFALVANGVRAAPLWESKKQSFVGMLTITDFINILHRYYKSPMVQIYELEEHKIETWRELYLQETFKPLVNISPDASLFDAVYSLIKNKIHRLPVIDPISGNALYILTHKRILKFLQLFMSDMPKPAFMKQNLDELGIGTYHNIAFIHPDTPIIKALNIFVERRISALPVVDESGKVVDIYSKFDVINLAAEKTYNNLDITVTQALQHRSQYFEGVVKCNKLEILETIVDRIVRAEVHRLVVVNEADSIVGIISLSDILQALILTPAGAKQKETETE

JNK1 = biological target: T5, JNK1 (Homo sapiens, UniProt P45983); test: Kinase panel assay (radiolabelled); type: biochemical; details: ATP 10 μM
T5 construct: purchased Reaction Biology Corp
T5 sequence (P45983 whole entry): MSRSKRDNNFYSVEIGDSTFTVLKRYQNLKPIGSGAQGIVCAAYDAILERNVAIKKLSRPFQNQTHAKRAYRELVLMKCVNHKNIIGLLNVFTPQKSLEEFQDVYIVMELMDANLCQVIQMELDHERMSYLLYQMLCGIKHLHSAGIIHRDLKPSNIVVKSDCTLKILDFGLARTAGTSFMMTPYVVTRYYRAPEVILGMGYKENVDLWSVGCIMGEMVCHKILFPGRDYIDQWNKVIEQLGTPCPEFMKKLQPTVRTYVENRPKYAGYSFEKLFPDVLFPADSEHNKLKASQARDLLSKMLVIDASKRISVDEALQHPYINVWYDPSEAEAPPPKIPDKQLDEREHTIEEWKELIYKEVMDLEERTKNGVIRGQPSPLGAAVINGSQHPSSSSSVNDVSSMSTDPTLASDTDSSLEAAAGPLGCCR

Compound	% Residual Activity at 30 μM (PKCa) [%]	% Residual Activity at 30 μM (CDK2/cyclin O) [%]	IL-6 level (IL-6)	% Enzyme Activity (relative to DMSO controls) (DNA-PK) [%]	remaining activity at 30 µM (DNA-PK; read-out: % Enzyme Activity (relative to DMSO controls)) [%]	remaining activity at 30 µM (AMPK(A2/B2/G2)) [%]	% Enzyme Activity (relative to DMSO controls) (JNK1; 30 μM compound, duplicates Data 1/Data 2) [%]	remaining activity at 30 µM (JNK1; 30 μM compound, duplicates Data 1/Data 2, read-out: % Enzyme Activity (relative to DMSO controls)) [%]	remaining activity at 30 µM (JNK1; 30 μM, average ± SD, read-out: % Residual Activity at 30 μM) [%]
O=C1C=CC2(C=C1)OCC(Cc1cc(C(F)(F)F)cc(C(F)(F)F)c1)C(=O)N2c1ccccc1 (racemic) [1c]	45.6 ± 1.2	43.1 ± 1.0							
O=C1C=CC2(C=C1)OCC(Cc1cn(-c3cccc(Cl)c3)nn1)C(=O)N2c1ccccc1 (stereo not drawn) [2d, 3-((1-(3-Chlorophenyl)-1H-1,2,3-triazol-4-yl)methyl)-5-phenyl-1-oxa-5-azaspiro[5.5]undeca-7,10-diene-4,9-dione]			concentration-dependent manner	101.60	103	114	82.67	82.7	82.7 ± 0.1
